Source: patent US20100267774A1, “P38 MAP KINASE INHIBITORS” (CHROMA THERAPEUTICS LTD., priority 2007, published 2010)

Columns and labels:
p38 MAP Kinase a = biological target: T1, p38 MAP Kinase a (Homo sapiens, UniProt Q16539); test: p38 MAP Kinase activity, radiometric filter-binding assay (Upstate); type: biochemical; settings: IC50 range; read-out: Inhibitor activity versus p38 MAPKa
T1 construct: purchased Upstate (Dundee UK)
Procedure: The ability of compounds to inhibit p38 MAP a Kinase activity was measured in an assay performed by Upstate (Dundee UK). In a final reaction volume of 25 μL, p38 MAP Kinase a (5-10 mU) is incubated with 25 mM Tris pH 7.5, 0.002 mMEGTA, 0.33 mg/mL myelin basic protein, 10 mM MgAcetate and [g-33P-ATP] (specific activity approx. 500 cpm/pmol, concentration as required). The reaction is initiated by the addition of the MgATP mix. After incubation for 40 minutes at room temperature, the reaction is stopped by the addition of 5 μL of a 3% phosphoric acid solution. 10 μL of the reaction is then spotted onto a P30 filtermat and washed three times for 5 minutes in 75 mM phosphoric acid and once in methanol prior to drying and scintillation counting.
Duplicate data points are generated from a 1/3 log dilution series of a stock solution in DMSO. Nine dilutions steps are made from a top concentration of 10 μM, and a ‘no compound’ blank is included. The standard radiometric filter-binding assay is performed at an ATP concentration at, or close to, the Km. Data from scintillation counts are collected and subjected to free-fit analysis by Prism software. From the curve generated, the concentration giving 50% inhibition is determined and reported.

THP-1 TNFα release = test: LPS-stimulation of THP-1 cells, TNF-α release by ELISA; type: cell-based; settings: Homo sapiens, THP-1, 6 h; read-out: Inhibitor activity versus THP-1 TNFα release
Procedure: THP-1 cells were plated in 100 μl at a density of 4×10^4 cells/well in V-bottomed 96 well tissue culture treated plates and incubated at 37° C. in 5% CO2 for 16 hrs. 2 hrs after the addition of the inhibitor in 100 μl of tissue culture media, the cells were stimulated with LPS (E coli strain 005:B5, Sigma) at a final concentration of 1 μg/ml and incubated at 37° C. in 5% CO2 for 6 hrs. TNF-α levels were measured from cell-free supernatants by sandwich ELISA (R&D Systems #QTA00B).

T1 sequence (Q16539 whole entry): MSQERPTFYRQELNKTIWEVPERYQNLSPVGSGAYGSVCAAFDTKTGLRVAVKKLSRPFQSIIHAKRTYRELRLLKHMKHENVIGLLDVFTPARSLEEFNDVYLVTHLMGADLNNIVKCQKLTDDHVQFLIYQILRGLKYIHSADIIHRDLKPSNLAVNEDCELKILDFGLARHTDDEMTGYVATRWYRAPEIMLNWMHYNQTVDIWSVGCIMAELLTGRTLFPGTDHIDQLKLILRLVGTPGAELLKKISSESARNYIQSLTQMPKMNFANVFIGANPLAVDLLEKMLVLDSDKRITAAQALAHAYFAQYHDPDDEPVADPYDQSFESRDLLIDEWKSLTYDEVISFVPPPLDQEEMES

| Structure (SMILES) | IC50 (p38 MAP Kinase a) [nM] | IC50 (THP-1 TNFα release) [nM] |
| --- | --- | --- |
| Nc1c(C(=O)c2ccc(F)cc2)ccc(=O)n1-c1c(F)cc(CCN[C@H](C(=O)OC2CCCC2)c2ccccc2)cc1F [Example 26, Cyclopentyl (2S)-[(2-{-4-[6-amino-5-(4-fluorobenzoyl)-2-oxopyridin-1(2H)-yl]-3,5-difluorophenyl}ethyl)amino](phenyl)acetate] | 100 to 1000 | < 100 |
| CC(C)(C)OC(=O)[C@@H](NCCc1cc(F)c(-n2c(N)c(C(=O)c3ccc(F)cc3)ccc2=O)c(F)c1)c1ccccc1 [Example 27, tert-butyl (2S)-[(2-{4-[6-amino-5-(4-fluorobenzoyl)-2-oxopyridin-1(2H)-yl]-3,5-difluorophenyl}ethyl)amino](phenyl)acetate] | 100 to 1000 | < 100 |
| Nc1c(C(=O)c2ccc(F)cc2)ccc(=O)n1-c1c(F)cc(CCN[C@H](C(=O)OC2CCCC2)C2CCCCC2)cc1F [Example 28, Cyclopentyl (2S)-[(2-{4-[6-amino-5-(4-fluorobenzoyl)-2-oxopyridin-1(2H)-yl]-3,5-difluorophenyl}ethyl)amino](cyclohexyl)acetate] | 100 to 1000 | 100 to 1000 |
| CC(C)C[C@@H](NCCc1cc(F)c(-n2c(N)c(C(=O)c3ccc(F)cc3)ccc2=O)c(F)c1)C(=O)OC1CCCC1 [Example 29, Cyclopentyl N-(2-{4-[6-amino-5-(4-fluorobenzoyl)-2-oxopyridin-1(2H)-yl]-3,5-difluorophenyl}ethyl)-D-leucinate] | 100 to 1000 | < 100 |
| CC(C)C[C@@H](NCCc1cc(F)c(-n2c(N)c(C(=O)c3ccc(F)cc3)ccc2=O)c(F)c1)C(=O)OC(C)(C)C [Example 30, tert-butyl N-(2-{4-[6-amino-5-(4-fluorobenzoyl)-2-oxopyridin-1(2H)-yl]-3,5-difluorophenyl}ethyl)-D-leucinate] | 100 to 1000 | 100 to 1000 |
| CC(C)(C)OC[C@H](NCCc1cc(F)c(-n2c(N)c(C(=O)c3ccc(F)cc3)ccc2=O)c(F)c1)C(=O)OC1CCCC1 [Example 31, Cyclopentyl N-(2-{4-[6-amino-5-(4-fluorobenzoyl)-2-oxopyridin-1(2H)-yl]-3,5-difluorophenyl}ethyl)-O-tert-butyl-L-serinate] | 100 to 1000 | < 100 |
| Nc1c(C(=O)c2ccc(F)cc2F)ccc(=O)n1-c1c(F)cc(CCN[C@H](C(=O)OC2CCCC2)c2ccccc2)cc1F [Example 34, Cyclopentyl (2S)-[(2-{4-[6-amino-5-(2,4-difluorobenzoyl)-2-oxopyridin-1(2H)-yl]-3,5-difluorophenyl}ethyl)amino](phenyl)acetate] | < 100 | < 100 |
| Nc1c(C(=O)c2ccc(F)cc2F)ccc(=O)n1-c1c(F)cc(CCN[C@H](C(=O)OC2CCCC2)C2CCCCC2)cc1F [Example 36, Cyclopentyl (2S)-[(2-{4-[6-amino-5-(2,4-difluorobenzoyl)-2-oxopyridin-1(2H)-yl]-3,5-difluorophenyl}ethyl)amino](cyclohexyl)acetate] | 100 to 1000 | < 100 |
| CC(C)C[C@H](NCCc1cc(F)c(-n2c(N)c(C(=O)c3ccc(F)cc3F)ccc2=O)c(F)c1)C(=O)OC(C)(C)C [Example 37, tert-butyl N-(2-{4-[6-amino-5-(2,4-difluorobenzoyl)-2-oxopyridin-1(2H)-yl]-3,5-difluorophenyl}ethyl)-L-leucinate] | 100 to 1000 | < 100 |
| CC(C)C[C@@H](NCCc1cc(F)c(-n2c(N)c(C(=O)c3ccc(F)cc3F)ccc2=O)c(F)c1)C(=O)OC1CCCC1 [Example 38, Cyclopentyl N-(2-{4-[6-amino-5-(2,4-difluorobenzoyl)-2-oxopyridin-1(2H)-yl]-3,5-difluorophenyl}ethyl)-D-leucinate] | 100 to 1000 | < 100 |
| CC(C)C[C@@H](NCCc1cc(F)c(-n2c(N)c(C(=O)c3ccc(F)cc3F)ccc2=O)c(F)c1)C(=O)OC(C)(C)C [Example 39, tert-butyl N-(2-{4-[6-amino-5-(2,4-difluorobenzoyl)-2-oxopyridin-1(2H)-yl]-3,5-difluorophenyl}ethyl)-D-leucinate] | 100 to 1000 | < 100 |
| CC(C)(C)OC[C@H](NCCc1cc(F)c(-n2c(N)c(C(=O)c3ccc(F)cc3F)ccc2=O)c(F)c1)C(=O)OC1CCCC1 [Example 40, Cyclopentyl N-(2-{4-[6-amino-5-(2,4-difluorobenzoyl)-2-oxopyridin-1(2H)-yl]-3,5-difluorophenyl}ethyl)-O-tert-butyl-L-serinate] | < 100 | < 100 |
| CC(C)(C)OC[C@H](NCCc1cc(F)c(-n2c(N)c(C(=O)c3ccc(F)cc3F)ccc2=O)c(F)c1)C(=O)OC(C)(C)C [Example 41, tert-butyl N-(2-{4-[6-amino-5-(2,4-difluorobenzoyl)-2-oxopyridin-1(2H)-yl]-3,5-difluorophenyl}ethyl)-O-tert-butyl-L-serinate] | < 100 | < 100 |
| Nc1c(C(=O)c2ccc(F)cc2F)ccc(=O)n1-c1c(F)cc(CCN[C@@H](C(=O)OC2CCCC2)c2ccccc2)cc1F [Example 42, Cyclopentyl (2R)-[(2-{4-[6-amino-5-(2,4-difluorobenzoyl)-2-oxopyridin-1(2H)-yl]-3,5-difluorophenyl}ethyl)amino](phenyl)acetate] | < 100 | < 100 |
| CC(C)[C@H](NCCc1cc(F)c(-n2c(N)c(C(=O)c3ccc(F)cc3F)ccc2=O)c(F)c1)C(=O)OC1CCCC1 [Example 43, Cyclopentyl N-[2-(4-{6-amino-5-[(2,4-difluorophenyl)carbonyl]-2-oxopyridin-1(2H)-yl}-3,5 difluorophenyl)ethyl]-L-valinate] | < 100 | < 100 |
| Nc1c(C(=O)c2ccc(F)cc2F)ccc(=O)n1-c1c(F)cc(CCN[C@H](C(=O)OC2CCCC2)c2ccc(O)cc2)cc1F [Example 44, Cyclopentyl (2S)-{[2-(4-{6-amino-5-[(2,4-difluorophenyl)carbonyl]-2-oxopyridin-1(2H)-yl}-3,5-difluorophenyl)ethyl]amino}(4-hydroxyphenyl)ethanoate] | < 100 | < 100 |
| C[C@@H](O)[C@H](NCCc1cc(F)c(-n2c(N)c(C(=O)c3ccc(F)cc3F)ccc2=O)c(F)c1)C(=O)OC1CCCC1 [Example 45, Cyclopentyl N-[2-(4-{6-amino-5-[(2,4-difluorophenyl)carbonyl]-2-oxopyridin-1(2H)-yl}-3,5-difluorophenyl)ethyl]-L-threoninate] | < 100 | < 100 |
| COc1ccc([C@H](NCCc2cc(F)c(-n3c(N)c(C(=O)c4ccc(F)cc4F)ccc3=O)c(F)c2)C(=O)OC2CCCC2)cc1 [Example 46, Cyclopentyl (2S)-{[2-(4-{6-amino-5-[(2,4-difluorophenyl)carbonyl]-2-oxopyridin-1(2H)-yl}-3,5-difluorophenyl)ethyl]amino}(4-methoxyphenyl)ethanoate] | < 100 | < 100 |
| CC(C)C[C@H](NCCc1ccc(-n2c(N)c(C(=O)c3ccc(F)cc3F)ccc2=O)s1)C(=O)OC1CCCC1 [Example 49, Cyclopentyl N-(2-{5-[6-amino-5-(2,4-difluorobenzoyl)-2-oxopyridin-1(2H)-yl]-2-thienyl}ethyl)-L-leucinate] | 100 to 1000 | < 100 |
